According to patent publication US12480137B2, “Plants having increased tolerance to herbicides” (BASF SE, priority 2014, dated 2025):

Assays:
Type in all cases: in vivo, Arabidopsis thaliana
[1] = test system: Cesa1_G1013R, fpx2-1 mutant line; experiment: Greenhouse phytotox, pre-emergent treatment
How it was run: (§1)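 First, M2 or M3 Arabidopsis plants are grown under greenhouse conditions. Next, they are treated with a cellulose biosynthesis-inhibiting triazine-2,4-diamine herbicide, e.g. N4-(4-chloro-3,5,6-trifluoro-2-pyridyl)-6-(1-fluoro-1-methyl-ethyl)-1,3,5-triazine-2,4-diamine. Finally, improved herbicide tolerance is evaluated.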

[2] = test system: Cesa1_G1009D, fpx2-3 mutant line; experiment: Greenhouse phytotox, pre-emergent treatment
How it was run: as §1

[3] = test system: Cesa1_P1010L, fpx2-2 mutant line; experiment: Greenhouse phytotox, pre-emergent treatment
How it was run: as §1

[4] = test system: Cesa3_S1040L, fpx1-1 mutant line; experiment: Greenhouse phytotox, pre-emergent treatment
How it was run: (§2)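 Greenhouse tests on M2 or M3 Arabidopsis plants for tolerance to cellulose biosynthesis-inhibiting herbicides, e.g. pentafluorophenyl-, tetrafluorophenyl- or chloro-trifluoropyridyl-substituted 1,3,5-triazine-2,4-diamines. Treatment given pre-emergence or post-emergence 6 weeks after sowing.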

A. thaliana WT L. erecta [5] = experiment: Greenhouse phytotox, pre-emergent treatment
How it was run: as §2

[6] = test system: transgenic Arabidopsis plants, construct AtCESA3_S1037F; experiment: Growth inhibition of transgenic Arabidopsis in 48-well plates, tolerance factor from IC50; conditions: SEQ ID NO 3, substitution S1037F, growth inhibition seven to ten days after seeding
Source text: (§3) For transformation of Arabidopsis thaliana, wildtype or mutated cellulose synthase sequences based on one of the following sequences SEQ ID NO: 72, 73, 74, 75, 76, or 77, are cloned with standard cloning techniques as described in Sambrook et al. (Molecular cloning (2001) Cold Spring Harbor Laboratory Press) in a binary vector containing resistance marker gene cassette (AHAS) and mutated cellulose synthase sequence (marked as GOI) in between ubiquitin promoter (PcUbi) and nopaline synthase terminator (NOS) sequence. Binary plasmids are introduced to Agrobacterium tumefaciens for plant transformation. Arabidopsis thaliana are transformed with wildtype or mutated cellulose synthase sequences by floral dip method as decribed by McElver and Singh (WO 2008/124495). Transgenic Arabidopsis plants are subjected to TaqMan analysis for analysis of the number of integration loci.
(§4) Transgenic Arabidopsis thaliana plants are assayed for improved tolerance to azine herbicides like e. g. 6-cyclopentyl-N4-(2,3,4,5,6-pentafluorophenyl)-1,3,5-triazine-2,4-diamine in 48-well plates. Therefore, T2 seeds are surface sterilized by stirring for 5 min in ethanol+water (70+30 by volume), rinsing one time with ethanol+water (70+30 by volume) and two times with sterile, deionized water. The seeds are resuspended in 0.1% agar dissolved in water (w/v) Four to five seeds per well are plated on solid nutrient medium consisting of half-strength murashige skoog nutrient solution, pH 5.8 (Murashige and Skoog (1962) Physiologia Plantarum 15: 473-497). Compounds are dissolved in dimethylsulfoxid (DMSO) and added to the medium prior solidification (final DMSO concentration 0.1%). Multi well plates are incubated in a growth chamber at 22° C., 75% relative humidity and 110 μmol Phot*m^−2*s^−1 with 14:10 h light:dark photoperiod. Growth inhibition is evaluated seven to ten days after seeding in comparison to wild type plants. Tolerance factors are calculated based on IC50 values of growth inhibition of transformed versus non-transformed Arabidopsis plants.

[7] = test system: transgenic Arabidopsis plants, construct AtCESA1_G1013R; experiment: as above; conditions: SEQ ID NO 1, substitution G1013R, growth inhibition seven to ten days after seeding
Source text: as §3, §4

[8] = test system: transgenic Arabidopsis plants, construct AtCESA3_wt; experiment: as above; conditions: SEQ ID NO 3, growth inhibition seven to ten days after seeding
Source text: as §3, §4

[9] = test system: transgenic Arabidopsis plants, construct AtCESA3_S1040L; experiment: as above; conditions: SEQ ID NO 3, substitution S1040L, growth inhibition seven to ten days after seeding
Source text: as §3, §4

[10] = test system: transgenic Arabidopsis plants, construct AtCESA1 wt; experiment: as above; conditions: SEQ ID NO 1, growth inhibition seven to ten days after seeding
Source text: as §3, §4

[11] = test system: Cesa1_G1013R, fpx2-1 mutant line; experiment: Greenhouse phytotox, post-emergent treatment 6 weeks after sowing
Protocol: (§5) Additionally, M2 or M3 Arabidopsis plants are tested for improved tolerance to cellulose biosynthesis-inhibiting herbicides in greenhouse studies (e. g. with the following cellulose biosynthesis-inhibiting herbicides: 6-cyclopentyl-N4-(2,3,4,5,6-pentafluorophenyl)-1,3,5-triazine-2,4-diamine; 6-(1-fluoro-1-methyl-ethyl)-N4-(2,3,4,5,6-pentafluorophenyl)-1,3,5-triazine-2,4-diamine; N4-(4-chloro-3,5,6-trifluoro-2-pyridyl)-6-(1-fluoro-1-methyl-ethyl)-1,3,5-triazine-2,4-diamine; 6-(2,6-difluorophenyl)-N4-(2,3,5,6-tetrafluorophenyl)-1,3,5-triazine-2,4-diamine; N4-(4-bromo-2,3,5,6-tetrafluoro-phenyl)-6-(1-fluoro-1-methyl-ethyl)-1,3,5-triazine-2,4-diamine.

[12] = test system: Cesa1_G1009D, fpx2-3 mutant line; experiment: as above
Protocol: as §5

[13] = test system: Cesa3_S983F, fpx1-3 mutant line; experiment: as above
Protocol: as §5

[14] = test system: Cesa3_S1037F, fpx1-2 mutant line; experiment: as above
Protocol: as §5

[15] = test system: Cesa1_P1010L, fpx2-2 mutant line; experiment: as above
Protocol: as §5

[16] = test system: Cesa3_S1040L, fpx1-1 mutant line; experiment: as above
Protocol: as §5

A. thaliana WT L. erecta [17] = experiment: as above
Protocol: as §5

## Nc1nc(Nc2c(F)c(F)c(F)c(F)c2F)nc(C2CCCC2)n1 [6-cyclopentyl-N4-(2,3,4,5,6-pentafluorophenyl)-1,3,5-triazine-2,4-diamine]
[1]; 0.25 g ai/ha
  Phytotox value on a scale from 0-100 (100 is 100% damage): 5
[1]; 0.98 g ai/ha
  Phytotox value on a scale from 0-100 (100 is 100% damage): 15
[1]; 3.91 g ai/ha
  Phytotox value on a scale from 0-100 (100 is 100% damage): 25
[1]; 15.63 g ai/ha
  Phytotox value on a scale from 0-100 (100 is 100% damage): 15
[2]; 0.25 g ai/ha
  Phytotox value on a scale from 0-100 (100 is 100% damage): 5
[2]; 0.98 g ai/ha
  Phytotox value on a scale from 0-100 (100 is 100% damage): 25
[2]; 3.91 g ai/ha
  Phytotox value on a scale from 0-100 (100 is 100% damage): 58
[2]; 15.63 g ai/ha
  Phytotox value on a scale from 0-100 (100 is 100% damage): 88
[3]; 0.25 g ai/ha
  Phytotox value on a scale from 0-100 (100 is 100% damage): 0
[3]; 0.98 g ai/ha
  Phytotox value on a scale from 0-100 (100 is 100% damage): 33
[3]; 3.91 g ai/ha
  Phytotox value on a scale from 0-100 (100 is 100% damage): 63
[3]; 15.63 g ai/ha
  Phytotox value on a scale from 0-100 (100 is 100% damage): 98
[4]; 0.25 g ai/ha
  Phytotox value on a scale from 0-100 (100 is 100% damage): 5
[4]; 0.98 g ai/ha
  Phytotox value on a scale from 0-100 (100 is 100% damage): 20
[4]; 3.91 g ai/ha
  Phytotox value on a scale from 0-100 (100 is 100% damage): 25
[4]; 15.63 g ai/ha
  Phytotox value on a scale from 0-100 (100 is 100% damage): 40
A. thaliana WT L. erecta [5]; 0.25 g ai/ha
  Phytotox value on a scale from 0-100 (100 is 100% damage): 38
A. thaliana WT L. erecta [5]; 0.98 g ai/ha
  Phytotox value on a scale from 0-100 (100 is 100% damage): 80
A. thaliana WT L. erecta [5]; 3.91 g ai/ha
  Phytotox value on a scale from 0-100 (100 is 100% damage): 99
A. thaliana WT L. erecta [5]; 15.63 g ai/ha
  Phytotox value on a scale from 0-100 (100 is 100% damage): 100
[6]
  Relative tolerance rate (non-transgenic = 1.0): 17
[7]
  Relative tolerance rate (non-transgenic = 1.0): 3
[8]
  Relative tolerance rate (non-transgenic = 1.0): 1
[9]
  Relative tolerance rate (non-transgenic = 1.0): 1
[10]
  Relative tolerance rate (non-transgenic = 1.0): 1
[11]; 7.88 g ai/ha
  Phytotox value on a scale from 0-100 (100 is 100% damage): 38
[11]; 15.75 g ai/ha
  Phytotox value on a scale from 0-100 (100 is 100% damage): 55
[11]; 31.5 g ai/ha
  Phytotox value on a scale from 0-100 (100 is 100% damage): 65
[11]; 63 g ai/ha
  Phytotox value on a scale from 0-100 (100 is 100% damage): 80
[12]; 7.88 g ai/ha
  Phytotox value on a scale from 0-100 (100 is 100% damage): 45
[12]; 15.75 g ai/ha
  Phytotox value on a scale from 0-100 (100 is 100% damage): 63
[12]; 31.5 g ai/ha
  Phytotox value on a scale from 0-100 (100 is 100% damage): 73
[12]; 63 g ai/ha
  Phytotox value on a scale from 0-100 (100 is 100% damage): 75
[13]; 7.88 g ai/ha
  Phytotox value on a scale from 0-100 (100 is 100% damage): 25
[13]; 15.75 g ai/ha
  Phytotox value on a scale from 0-100 (100 is 100% damage): 65
[13]; 31.5 g ai/ha
  Phytotox value on a scale from 0-100 (100 is 100% damage): 55
[13]; 63 g ai/ha
  Phytotox value on a scale from 0-100 (100 is 100% damage): 73
[14]; 7.88 g ai/ha
  Phytotox value on a scale from 0-100 (100 is 100% damage): 55
[14]; 15.75 g ai/ha
  Phytotox value on a scale from 0-100 (100 is 100% damage): 58
[14]; 31.5 g ai/ha
  Phytotox value on a scale from 0-100 (100 is 100% damage): 70
[14]; 63 g ai/ha
  Phytotox value on a scale from 0-100 (100 is 100% damage): 78
[15]; 7.88 g ai/ha
  Phytotox value on a scale from 0-100 (100 is 100% damage): 63
[15]; 15.75 g ai/ha
  Phytotox value on a scale from 0-100 (100 is 100% damage): 70
[15]; 31.5 g ai/ha
  Phytotox value on a scale from 0-100 (100 is 100% damage): 78
[15]; 63 g ai/ha
  Phytotox value on a scale from 0-100 (100 is 100% damage): 93
[16]; 7.88 g ai/ha
  Phytotox value on a scale from 0-100 (100 is 100% damage): 0
[16]; 15.75 g ai/ha
  Phytotox value on a scale from 0-100 (100 is 100% damage): 5
[16]; 31.5 g ai/ha
  Phytotox value on a scale from 0-100 (100 is 100% damage): 35
[16]; 63 g ai/ha
  Phytotox value on a scale from 0-100 (100 is 100% damage): 68
A. thaliana WT L. erecta [17]; 7.88 g ai/ha
  Phytotox value on a scale from 0-100 (100 is 100% damage): 68
A. thaliana WT L. erecta [17]; 15.75 g ai/ha
  Phytotox value on a scale from 0-100 (100 is 100% damage): 80
A. thaliana WT L. erecta [17]; 31.5 g ai/ha
  Phytotox value on a scale from 0-100 (100 is 100% damage): 78
A. thaliana WT L. erecta [17]; 63 g ai/ha
  Phytotox value on a scale from 0-100 (100 is 100% damage): 98
